In the OPERA property sets (Mansouri et al. 2018):

Q: Which boiling point does the source give for `CCCCSC` here?
A: 124 °C

Q: And the log10 vapour pressure (mmHg)?
A: 1.19

Q: What about the melting point of the same molecule?
A: -97.8 °C

Q: With `CCCCCCCCCCOCCCCCCCCCC` as the molecule, how does the ready biodegradability read?
A: readily biodegradable

Q: Which results are given for `NNC(N)=S`?
A: melting point: 183 °C; ready biodegradability: not readily biodegradable

Q: With `Clc1ccc(Cc2ccc(Cl)cc2)cc1` as the molecule, how does the melting point read?
A: 55.5 °C

Q: With `CCCCC1C(=O)N(c2ccccc2)N(c2ccccc2)C1=O` as the molecule, how does the melting point read?
A: 105 °C

Q: Which boiling point does the source give for `CN(C)c1ccc(Br)cc1` here?
A: 264 °C

Q: What about the melting point of the same molecule?
A: 55 °C

Q: Which results are given for `COC(=O)CSc1cc(/N=c2\sc(=O)n3n2CCCC3)c(F)cc1Cl`?
A: log10 vapour pressure (mmHg): -8.48; melting point: 106 °C

Q: What does the source list for `C1CO1`?
A: boiling point: 10.6 °C; log10 Henry constant (atm·m³/mol): -3.83; log10 vapour pressure (mmHg): 3.12; melting point: -112 °C; ready biodegradability: readily biodegradable

Q: For `CCc1c(CC)c(CC)c(CC)c(CC)c1CC`, which boiling point is on record?
A: 298 °C

Q: And the melting point?
A: 129 °C

Q: For `O=C(O)c1ccc2ccccc2c1`, which log10 vapour pressure (mmHg) is on record?
A: -5.18

Q: What about the melting point of the same molecule?
A: 186 °C

Q: And the ready biodegradability?
A: readily biodegradable

Q: With `Ic1cccc(I)c1I` as the molecule, how does the melting point read?
A: 116 °C

Q: Which results are given for `CC(C)CCO`?
A: boiling point: 131 °C; log10 Henry constant (atm·m³/mol): -4.85; log10 Koa: 4.52; log10 vapour pressure (mmHg): 0.375; ready biodegradability: readily biodegradable

Q: For `O=c1cc(-c2ccc(O)cc2)oc2cc(O)cc(O)c12`, which melting point is on record?
A: 348 °C

Q: With `Clc1c(Cl)c(Cl)c(Cl)c(Cl)c1Cl` as the molecule, how does the boiling point read?
A: 325 °C

Q: What about the log10 Henry constant (atm·m³/mol) of the same molecule?
A: -2.77

Q: And the log10 Koa?
A: 7.38

Q: What about the log10 Koc (L/kg) of the same molecule?
A: 3.74

Q: What about the log10 vapour pressure (mmHg) of the same molecule?
A: -4.74

Q: What about the melting point of the same molecule?
A: 232 °C

Q: What about the ready biodegradability of the same molecule?
A: not readily biodegradable

Q: What about the log10 BCF (fish) of the same molecule?
A: 4.33

Q: And the log10 biotransformation half-life (days) (fish)?
A: 2.44

Q: For `Cc1ccc2nc(C)[nH]c2c1`, which boiling point is on record?
A: 350 °C

Q: What about the melting point of the same molecule?
A: 203 °C

Q: For `FC(F)(F)Cl`, which boiling point is on record?
A: -81.4 °C

Q: And the log10 Henry constant (atm·m³/mol)?
A: 0.14

Q: What about the log10 vapour pressure (mmHg) of the same molecule?
A: 4.33

Q: And the melting point?
A: -181 °C

Q: Which melting point does the source give for `COc1ccc(C(=O)CC(=O)c2ccc(C(C)(C)C)cc2)cc1` here?
A: 83.5 °C

Q: Which boiling point does the source give for `COc1cccc(OC)c1C#N` here?
A: 310 °C

Q: What about the melting point of the same molecule?
A: 119 °C

Q: What does the source list for `CCCCCCCCCCCCCCCC1CCCCC1`?
A: boiling point: 373 °C; log10 vapour pressure (mmHg): -6.46; melting point: 29 °C

Q: For `c1ccc2c(c1)ccc1c3ccc4ccccc4c3[nH]c21`, which log10 Koc (L/kg) is on record?
A: 6.02

Q: For `C=CC(=O)OCC(CO)(COC(=O)C=C)COC(=O)C=C`, which ready biodegradability is on record?
A: not readily biodegradable

Q: What does the source list for `CCCN(CCC)c1c([N+](=O)[O-])cc(S(C)(=O)=O)cc1[N+](=O)[O-]`?
A: log10 Koc (L/kg): 2.92; log10 vapour pressure (mmHg): -8.03; melting point: 150 °C; ready biodegradability: not readily biodegradable

Q: With `c1ccc2oc(-c3ccc(-c4nc5ccccc5o4)s3)nc2c1` as the molecule, how does the melting point read?
A: 219 °C

Q: What does the source list for `CCCCNS(=O)(=O)c1ccccc1`?
A: boiling point: 314 °C; ready biodegradability: not readily biodegradable

Q: Which results are given for `CC(=O)Nc1ccccc1O`?
A: melting point: 208 °C; ready biodegradability: readily biodegradable

Q: Which boiling point does the source give for `COc1cccc(C=O)c1O` here?
A: 266 °C

Q: What about the melting point of the same molecule?
A: 44.5 °C

Q: Which results are given for `O=C(CCl)c1ccccc1`?
A: boiling point: 247 °C; log10 vapour pressure (mmHg): -2.27; melting point: 56.5 °C

Q: Which melting point does the source give for `CCCCCCCCCCCCCCCC(=O)OC[C@H](O)[C@H]1OC(=O)C(O)=C1O` here?
A: 116 °C

Q: Which melting point does the source give for `O=c1cc[nH]c2ccccc12` here?
A: 201 °C

Q: With `NS(=O)(=O)c1ccc(S(=O)(=O)CCO)c(F)c1` as the molecule, how does the melting point read?
A: 165 °C

Q: For `Cc1ncc(CO)c(C=O)c1O`, which melting point is on record?
A: 165 °C

Q: And the ready biodegradability?
A: readily biodegradable

Q: Which results are given for `C1CCC(CCC2CCCCC2)CC1`?
A: boiling point: 272 °C; melting point: 11.5 °C; log10 biotransformation half-life (days) (fish): 0.13

Q: Which melting point does the source give for `C[C@H](NC(=O)[C@H](C)NC(=O)[C@@H](N)CCP(C)(=O)O)C(=O)[O-].[Na+]` here?
A: 160 °C

Q: Which melting point does the source give for `COc1cc(CCn2cccc2C(=O)O)cc(OC)c1OC` here?
A: 132 °C

Q: For `CCCCCCCCCI`, which log10 vapour pressure (mmHg) is on record?
A: -1.56

Q: Which melting point does the source give for `Cc1ccc2[nH]nnc2c1` here?
A: 81 °C

Q: Which results are given for `CCC(CC)Nc1c([N+](=O)[O-])cc(C)c(C)c1[N+](=O)[O-]`?
A: boiling point: 330 °C; log10 Koc (L/kg): 3.7; log10 vapour pressure (mmHg): -4.52; melting point: 56 °C

Q: What does the source list for `Cc1cc(Cl)c(O)c(Cl)c1`?
A: boiling point: 231 °C; melting point: 39 °C

Q: Which log10 vapour pressure (mmHg) does the source give for `CCCCCCCCCCCI` here?
A: -2.35

Q: Which melting point does the source give for `COc1cc(NS(C)(=O)=O)ccc1Nc1c2ccccc2nc2ccccc12` here?
A: 235 °C

Q: For `C#CCCC(C)=O`, which boiling point is on record?
A: 149 °C

Q: For `CCCCCC1OC1CC1OC1CCCCCCCC(=O)OCC(COC(=O)CCCCCCCC1OC1CC1OC1CCCCC)OC(=O)CCCCCCCC1OC1CC1OC1CCCCC` (stereo not drawn), which ready biodegradability is on record?
A: readily biodegradable

Q: With `CC=Cc1ccc(OC)c(OC)c1` as the molecule, how does the boiling point read?
A: 270 °C

Q: What about the melting point of the same molecule?
A: 18 °C

Q: For `O=C(CBr)c1ccccc1`, which melting point is on record?
A: 50.5 °C

Q: Which melting point does the source give for `COc1ccc2c(c1)c(CC(=O)OCC(=O)O)c(C)n2C(=O)c1ccc(Cl)cc1` here?
A: 152 °C

Q: Which melting point does the source give for `O=S(=O)([O-])CCN1CC[NH+](CCO)CC1` here?
A: 234 °C

Q: Which boiling point does the source give for `O=C(Cl)c1cccc(F)c1` here?
A: 189 °C

Q: And the melting point?
A: -30 °C

Q: Which results are given for `CCCCCCCCCCCCCCC(C)O` (stereo not drawn)?
A: boiling point: 314 °C; melting point: 44 °C

Q: With `CNC(=O)c1ccccc1` as the molecule, how does the boiling point read?
A: 291 °C

Q: And the log10 Koc (L/kg)?
A: 1.68

Q: And the melting point?
A: 82 °C

Q: With `CCCC(C)CO` (stereo not drawn) as the molecule, how does the boiling point read?
A: 149 °C

Q: What about the log10 vapour pressure (mmHg) of the same molecule?
A: 0.283

Q: With `O=C(Nc1ccc(Cl)cc1C(O)c1ccccc1)c1ccncc1` (stereo not drawn) as the molecule, how does the melting point read?
A: 211 °C

Q: Which melting point does the source give for `CC(C)OC(=O)[C@H](C)N(C(=O)c1ccccc1)c1ccc(F)c(Cl)c1` here?
A: 78.5 °C

Q: For `CCCN1C[C@H](CSC)C[C@@H]2c3cccc4[nH]cc(c34)C[C@H]21`, which melting point is on record?
A: 208 °C

Q: For `CCCSP(=S)(OCC)Oc1ccc(SC)cc1` (stereo not drawn), which log10 Koc (L/kg) is on record?
A: 4.08

Q: And the log10 vapour pressure (mmHg)?
A: -5.92

Q: What about the melting point of the same molecule?
A: -15 °C

Q: With `CC1CCCCCCCCCCCCC(=O)C1` (stereo not drawn) as the molecule, how does the boiling point read?
A: 329 °C

Q: With `OC(c1ccccc1)(C(F)(F)F)C(F)(F)F` as the molecule, how does the boiling point read?
A: 160 °C

Q: Which melting point does the source give for `Cc1ccc(S(=O)(=O)C2(C(=O)OC(C)C)CC2)cc1` here?
A: 65.5 °C

Q: With `CCN(C)C(=O)COC(=O)c1ccccc1` as the molecule, how does the melting point read?
A: 20 °C

Q: With `CC(Cl)(Cl)C(=O)[O-].[Na+]` as the molecule, how does the melting point read?
A: 166 °C
